“And” between values parts separate entries of the source, which are not always exact repeats. Equal values may be shown once.

From patent US20160361250A1, “ACTIVE INGREDIENTS STIMULATING TYPE 2 AND/OR TYPE 3 HUMAN BETA-DEFENSINS AND COSMETIC OR PHARMACEUTICAL COMPOSITIONS CONTAINING SUCH ACTIVE INGREDIENTS” (BASF Beauty Care Solutions France S.A.S., priority 2002, published 2016) come the findings set out here.

In test [1] the test system is hBD2. Briefly: Qualitative RT-PCR of hBD2 expression, 1st step of the screening method. The test is classed as cell-based. Particulars: normal human keratinocytes, 16 h. The method, then:
A 1% concentration of the actives is tested on normal human keratinocytes, as a monolayer, on 96-well culture plates, in a specific medium enriched with calcium and free of serum (final concentration 1.7 mM).
(§1) At 80% confluence, cells are contacted with the actives (1 active per well) for 16 h. An untreated control and 2 positive controls (TNFα 100 ng/mL for hBD2 and IFNγ 100 ng/mL for hBD3) are set up in parallel on the same culture plate.
(§2) After 16 h, the supernatants are collected and cells are dry frozen at −80° C. after rinsing in PBS.
(§3) Total RNA are extracted using a 96-well extraction kit on silica columns and assayed using a 96-well spectrophotometer at 260 and 280 nm. RNA are diluted to 5 ng/mL.
(§4) Qualitative one-step RT-PCR is performed on 50 ng of initial RNA in 96 wells, on actin, hBD2 and hBD3. The primers are used at a concentration of 0.5 μM and arc taken from the literature:—hBD2: sense: 5′-[…]-3′; hBD2 antisense 5′-[…]-3′ (Harder J. et al., A peptide antibiotic from human skin. Nature 1997; 387 : 861); hBD3 sense: 5′-[…]-3′; hBD3 antisense: 5′-[…]-3′; actin sense: 5′-[…]-3′; actin antisense: 5′-[…]-3′ (Harder J. et al., Isolation and characterization of human β-defensin-3, a novel human inducible peptide antibiotic. J Biol Chem 2001, 276 : 5707-5713).
(§5) Samples are placed in a thermocycler and follow a common amplification program: 50° C., 30 min; 94° C., 2 min, (94° C., 30 s; 60° C., 30 s; 68° C., 30 s), 32 cycles for the defensins and 30 cycles for actin; 72° C., 10 min; 14° C., infinite.
(§6) After amplification, the products are mixed at a rate of 3 μL of actin amplification products+6 μL of hBD2 amplification products+6 μL of hBD3 amplification products. 5 μL of a mixture of charge buffer and water (⅔) are added and the final 20 μL are deposited on 2% premoulded agarose gel. The samples migrate in 30 minutes and the bands are visualised under UV in a dark room then digitally photographed.
(§7) Photos of the gels are analysed by image processing software which quantifies the intensity of the bands. As the basal level of defensin expression (untreated control) is not detectable, the intensity ratios of the hBD2/actin and hBD3/actin bands can be compared, for example with those obtained for the positive control (treated with TNFα for hBD2 and IFNγ for hBD3) and indicate any stimulation of the expression of the β-defensin in question
(§8) Since the basal level of defensin expression is generally not detectable, stimulation of hBD2 and hBD3 is expressed as a percentage of the positive controls (TNFα for hBD2 and IFNγ for hBD3). IL8 and MIP3α levels are given as pg/mL/RNA concentration (in ng/μL).

The test system of test [2] is IL8. Briefly: ELISA of IL8 secreted into the culture medium, 1st step. Particulars: keratinocyte supernatant, 16 h. Format: cell-based, human. As for the experimental part: (§9) At the end of this first step, the actives having exerted an effect on β-defensin expression are selected and the supernatants corresponding to these actives are then tested using an ELISA kit in order to determine the levels of MIP3α, IL1 and IL8 secreted into the culture medium under the effect of the actives. The levels are then referred to the RNA concentration assayed in each well in order to compare results with each other.
as §8

Test [3] deals with hBD3. Nature of the test: Qualitative RT-PCR of hBD3 expression, 1st step of the screening method. Format: cell-based. As to conditions: normal human keratinocytes, 16 h. As for the experimental part:
as §1, §2, §3, §4, §5, §6, §7, §8

The test system of test [4] is MIP3α. Nature of the test: ELISA of MIP3α secreted into the culture medium, 1st step. The test is classed as cell-based, human. As to conditions: 100 μg/mL; keratinocyte supernatant, 16 h. As for the experimental part:
as §9, §8

Test [5] has as its system hBD3. Briefly: Quantitative RT-PCR of hBD3 expression, 2nd step (dose-effect). Format: cell-based, human. As to conditions: conc. 100 ng/mL; 16 h; untreated control = 100%. As for the experimental part: (§10) The actives are then tested on 5 concentrations (from 0.001% to max viability) in quadruplicate on normal human keratinocytes as a monolayer on 96-well culture plates, in a specific medium enriched with calcium and free of serum (CaCl2 1.7 mM) (same conditions as in example 1).
as §2
(§11) Total RNA are extracted using a 96-well extraction kit on silica columns and assayed using a 96-well spectrophotometer at 260 and 280 nm. RNA are diluted to 5 ng/μL.
(§12) Quantitative RT-PCR in 96 wells on actin, hBD2 and hBD3 is initially carried out on 50 ng of RNA, using a one-step kit containing Sybrgreen, in a fluorescence thermocycler with the same primers as previously (0.5 μM). The amplification program is as follows: 50° C., 30 min; 94° C., 15 min; (94° C., 15 s; 60° C., 30 s; 72° C., 30 s)×50 cycles; 90° C., 1 min; 30° C., 1 min; 50° C. to 95° C. (10 s every ° C.); 14° C., infinite.
(§13) A study of the fusion graphs makes it possible to verify the specificity of amplified products. The fluorescence graph as a function of the number of cycles gives the C(T) value corresponding to the number of cycles needed to obtain initiation of the fluorescence signal. The more an mRNA is expressed, the lower the C(T) value. Calculation of Sgene=(½)^C(T) for each RNA takes into consideration the exponential increase in the number of copies during amplification. The Sgene hBD2/Sgene actin and Sgene hBD3/Sgene actin ratios can be compared with those of the untreated control to give the percentage stimulation produced.
(§14) Quantitative RT-PCR makes it possible to obtain a basal value for the defensin expression for untreated controls. The results are therefore expressed as a percentage of the control. IL8, IL1 and MIP3 cytokine levels are given as pg/mL/RNA concentration (in ng/μL).
(§15) In the same way as in example 2, retinoic acid and retinol were tested for their capacity to stimulate hBD2 and/or hBD3.

In the next test the test system is IL1α. Nature of the test: ELISA of IL1α in supernatants, 2nd step. The test is classed as cell-based, human. Particulars: conc. 100 ng/mL; supernatant, 16 h. As for the experimental part: (§16) The supernatants of the actives, whose capacity to induce defensins has been confirmed, are tested using an ELISA kit in order to assay MIP3α, IL8 and IL1α levels. These assays are performed on the same supernatant (200 μL) by carrying out a series dilution (by 1.5 to assay MIP3α and IL8, then by 2 to assay IL1). The levels are then referred to the RNA concentration assayed in each well in order to compare results with each other.
as §14

In test [6] the test system is IL8. Nature of the test: ELISA of IL8 in supernatants, 2nd step. The test is classed as cell-based, human. Particulars: conc. 100 ng/mL; supernatant, 16 h. The method, then: as §16, §14
Test [7] has as its system MIP3α. Briefly: ELISA of MIP3α in supernatants, 2nd step. Format: cell-based, human. As to conditions: conc. 100 ng/mL; supernatant, 16 h. As for the experimental part: as §16, §14
Test [8] has as its system hBD2. Briefly: Quantitative RT-PCR of hBD2 expression, 2nd step (dose-effect). The test is classed as cell-based, human. Particulars: conc. 100 ng/mL; 16 h; untreated control = 100%. As for the experimental part: as §10, §2, §11, §12, §13, §14, §15

As for `CC[C@H](C)[C@H](N)C(=O)O` (racemic) [D,L-Isoleucine], the “HBD2 expression, percentage of the positive control (TNFα)” value (from here on “HBD2 expression, percentage … (TNFα)”) with hBD2 [1] (100 μg/mL) is recorded as 0%. The IL8 level in the test with IL8 [2] (100 μg/mL) is reported as 30.6 pg/mL/RNA concentration (in ng/μL). In the test on hBD3 [3] (100 μg/mL), the “HBD3 expression, percentage of the positive control (IFNγ)” value (“HBD3 expression, percentage … (IFNγ)” for short) is 0%. Also, the MIP3α level in the test on MIP3α [4] is on record as 5.6 pg/mL/RNA concentration (in ng/μL).

TNFα: the “hBD3 expression, percentage of the control” value in the test with hBD3 [5] worked out at 774%. In the test on hBD2 [1] (100 ng/mL (positive control)), the “HBD2 expression, percentage … (TNFα)” value is 100%. Moreover, the IL8 level was 186 pg/mL/RNA concentration (in ng/μL) and 97 pg/mL/RNA concentration (in ng/μL) in the test with IL8 [2] (100 ng/mL (positive control)); 175 pg/mL/RNA concentration (in ng/μL) with IL8 [6]. For the same molecule, the “HBD3 expression, percentage … (IFNγ)” value with hBD3 [3] (100 ng/mL (positive control)) was found to be 100%. Moreover, the IL1α level in the test on IL1α is reported as 21.8 pg/mL/RNA concentration (in ng/μL). Further, the MIP3α level in the test with MIP3α [7] was 23.6 pg/mL/RNA concentration (in ng/μL). Moreover, the “hBD2 expression, percentage of the control” value in the test with hBD2 [8] was determined as 1755%.

As for `CC[C@H](C)[C@H](N)C(=O)OC` [Isoleucine Methyl ester], the “HBD2 expression, percentage … (TNFα)” value in the test with hBD2 [1] (100 μg/mL) was determined as 16%. Further, the IL8 level in the test with IL8 [2] (100 μg/mL) is reported as 7.7 pg/mL/RNA concentration (in ng/μL). For the same molecule, the “HBD3 expression, percentage … (IFNγ)” value in the test on hBD3 [3] (100 μg/mL) worked out at 6%. Further, the MIP3α level with MIP3α [4] was 3.8 pg/mL/RNA concentration (in ng/μL).

B1: IFNγ: gamma interferon, positive control for hBD3 stimulation, 100 ng/mL (protein, UniProt P01579 24-161, looked up)
Interferon gamma: QDPYVKEAENLKKYFNAGHSDVADNGTLFLGILKNWKEESDRKIMQSQIVSFYFKLFKNFKDDQSIQKSVETIKEDMNVKFFNSNKKKRDDFEKLTNYSVTDLNVQRKAIHELIQVMAELSPAAKTGKRKRSQMLFRG
As to B1, in the test on hBD3 [5], the “hBD3 expression, percentage of the control” value is recorded as 4631%. In the test on IL1α, the IL1α level is 40.1 pg/mL/RNA concentration (in ng/μL). Besides, the IL8 level in the test on IL8 [6] is given as 100.5 pg/mL/RNA concentration (in ng/μL). For the same molecule, the MIP3α level in the test with MIP3α [7] was 11.6 pg/mL/RNA concentration (in ng/μL). Moreover, in the test with hBD2 [8], the “hBD2 expression, percentage of the control” value was 472%.
